Values quoted from earlier work in US8324425B2, “Method for producing bicyclic γ-amino acid derivative” (Daiichi Sankyo Company, Limited, priority 2009, dated 2012).

What was measured:
[1] = according to patients' own evaluation; Non Patent Literature 3
[2] = according to patients' own evaluation; Non Patent Literature 4

Row | Compound | efficacy in the treatment of postherpetic neuralgia [1] | efficacy in the treatment of painful diabetic neuropathy [2]
1 | NCC1(CC(=O)O)CCCCC1 [gabapentine] | approximately 60% | –
2 | CC(C)C[C@H](CN)CC(=O)O [pregabalin] | – | approximately 50%
